The values that follow come from US10596172B2 (Celgene CAR LLC, priority 2008, dated 2020).

The target in assay [1] is Erbb4 kinase domain (Homo sapiens (Human), UniProt Q15303). The experiment in a line: Mass spectrometry for ERBB4. It is filed as binding. Particulars: 60 minutes at 10-fold excess of compound. The method, then:
Erbb4 kinase domain (Upstate) was incubated with compound for 60 minutes at 10-fold excess of compound I-4 and I-11 to protein. 1 μl aliquots of the samples (total volume of 4.24 ul) were diluted with 10 μl of 0.1% TFA prior to micro C4 ZipTipping directly onto the MALDI target using Sinapinic acid as the desorption matrix (10 mg/ml in 0.1% TFA:Acetonitrile 50:50). For intact protein mass measurement the instrument was set in Linear mode using a pulsed extraction setting of 16,952 for the myoglobin standard used to calibrate the instrument (Shimadzu Axima TOF^2).
Intact ErbB4 protein occurs at MH+ of 35850 with corresponding sinapinic (matrix) adducts occurring about 200 Da higher. A stoichiometric incorporation of the test compound (I-4 and I-11) (Mw of 410 Da) produced a new mass peak which is approximately 410 Da higher (MH+ of 36260).

Assay [2] has as its target T1, JAK3 (Homo sapiens (Human), UniProt P52333). Put plainly: Mass spectrometry for Janus-3 kinase (JAK3). Particulars: 3 hrs at 10x excess, tryptic digest. It is filed as binding. The method, then:
JAK3 kinase (33 pmols; Invitrogen) was incubated with (I-7) (327 pmols) for 3 hrs at 10× excess prior to tryptic digestion. Iodoacetamide was used as the alkylating agent after compound incubation. For tryptic digests a 5 ul aliquot (5.5 pmols) was diluted with 15 ul of 0.1% TFA prior to micro C18 Zip Tipping directly onto the MALDI target using alpha cyano-4-hydroxy cinnamic acid as the matrix (5 mg/ml in 0.1% TFA:Acetonitrile 50:50).
As depicted in FIG. 11, the expected peptide ([…]) to be modified was immediately evident as the largest peak at MH+ of 1725.88. This is the mass to be expected when compound I-7, with an adduct mass of 345.16, is added to the peptide mass of 1380.70. […] There was also evidence for a number of other modified peptides, however, their signals were low.
To further verify the presence of the modified peptides with compound I-7, the peptides at MH+ of 1725.88 and 1118.55 were subjected to PSD (MS/MS) analysis. A correlational analysis with the homo sapien database identified the correct peptides as being modified by I-7.
For tryptic digests the instrument was set in Reflectron mode with a pulsed extraction setting of 2200. Calibration was done using the Laser Biolabs Pep Mix standard ([…], 1296.69, 1672.92, 2093.09, 2465.20). […]

Assay [3] deals with T1, JAK3. Put plainly: Omnia assay for potency assessment against the active form of JAK3. It is filed as biochemical. The note with it: read-out: JAK3 Inhibition.
Assay [4] concerns the target T2, BTK (Homo sapiens (Human), UniProt Q06187). The experiment in a line: Omnia assay for potency assessment against BTK. The format is biochemical. The note with it: [BTK]=5 nm; read-out: BTK Inhibition. The method, then:
Omnia Assay Protocol for Potency Assessment Against BTK
The modified BTK-optimized reagent conditions for the above protocol are:
[BTK]=5 nm, [ATP]=40 mM, [Y5-Sox]=10 mM (ATP KMapp˜36 mM).

The target of assay [5] is ITK (Homo sapiens (Human), UniProt Q08881). The experiment in a line: Omnia assay for potency assessment against active forms of ITK kinase. The format is biochemical. Particulars: [ITK]=10 nM, [ATP]=25 μM, [Y6-Sox]=10 μM; read-out: ITK Inhibition. The method, then:
[ITK]=10 nM, [ATP]=25 μM, [Y6-Sox]=10 μM (ATP KMapp=33 μM).

Assay [6] has as its target EGFR-WT (Homo sapiens (Human), UniProt P00533). The experiment in a line: Omnia assay for potency assessment against EGFR (WT). The format is biochemical. Particulars: wild-type EGFR; read-out: EGFR Wild Type Inhibition.
The target in assay [7] is T2, BTK. Put plainly: BTK Ramos cellular assay (phosphorylation of BTK substrate PLCγ2). The format is cell-based. The note with it: Ramos cells, compound 1 hour, anti-human IgM stimulation, read-out: BTK Inhibition (BTK Ramos Cellular Inhibition Data). The protocol: Ramos cells were grown in suspension in T225 flasks, spun down, resuspended in 50 ml serum-free media and incubated for 1 hour. […] Ramos cells were incubated with compound for 1 hour, washed again and resuspended in 100 ul serum-free media. Cells were then stimulated with 1 μg of goat F(ab′)2 Anti-Human IgM and incubated on ice for 10 minutes to activate B cell receptor signaling pathways. After 10 minutes, the cells were washed once with PBS and then lysed on ice with Invitrogen Cell Extraction buffer. 16 μg total protein from lysates were loaded on gel and blots were probed for phosphorylation of the BTK substrate PLCγ2.

The subject of assay [8] is B cell lymphoma cell lines. Put plainly: B cell lymphoma proliferation assay. The format is cell-based.
The target in assay [9] is T2, BTK. The experiment in a line: Washout experiment with Ramos cells. The format is cell-based. Particulars: 100 nM compound 1 hour, then washout. The protocol: Ramos cells were serum starved for one hour in RPMI media +1% glutamine at 37° C. After starvation, Ramos cells were treated with 100 nM compound diluted in serum free RPMI media for 1 hour. After compound treatment, the media was removed and cells were washed with compound-free media. Subsequently, Ramos cells were washed every 2 hours and resuspended in fresh compound-free media. Cells were collected at specified timepoints, treated with 1 ug anti-human IgM (Southern Biotech cat #2022-01) for 10 minutes on ice to induce BCR signaling and then washed in PBS. Ramos cells were then lysed in Cell Extraction Buffer (Invitrogen FNN0011) supplemented with Roche complete protease inhibitor tablets (Roche 11697498001) and phosphatase inhibitors (Roche 04 906 837 001) and 18 ug total protein lysate was loaded in each lane. Inhibition of BTK kinase activity was assayed by measuring its substrate (PLCγ2) phosphorylation by western blot with phospho-specific antibodies from Cell Signaling Technologies cat #3871. The results of this experiment with compounds I-2, I-4 and I-7 are depicted in FIGS. 1, 2 and 3.

In assay [10] the target is TEC kinase (Homo sapiens (Human), UniProt P42680). Put plainly: Mass spectrometry for TEC kinase (tryptic digest). The format is binding. Particulars: 3 hrs at 10x excess. The protocol:
TEC kinase (45 pmols; Invitrogen) was incubated with (I-2) (450 pmols) for 3 hrs at 10× excess prior to tryptic digestion. Iodoacetamide was used as the alkylating agent after compound incubation. […] For tryptic digests a 5 ul aliquot (7.5 pmols) was diluted with 15 ul of 0.1% TFA prior to micro C18 Zip Tipping directly onto the MALDI target using alpha cyano-4-hydroxy cinnamic acid as the matrix (5 mg/ml in 0.1% TFA:Acetonitrile 50:50).
As depicted in FIG. 6, the expected peptide ([…]) to be modified was immediately evident after reaction with I-2 (MI mass of 359.17 Da) at MH+ of 1294.72. The peptide was also quite evident in the control sample as modified by Iodacetamide at MH+ of 992.56. […] There was no evidence of other modified peptides.
For tryptic digests the instrument was set in Reflectron mode with a pulsed extraction setting of 2200. Calibration was done using the Laser Biolabs Pep Mix standard ([…], 1296.69, 1672.92, 2093.09, 2465.20). For CID/PSD analysis the peptide was selected using cursors to set ion gate timing and fragmentation occurred at a laser power about 20% higher and He was used as the collision gas for CID. Calibration for fragments was done using the P14R fragmentation calibration for the Curved field Reflectron.
TEC kinase (45 pmols; Invitrogen) was incubated with (I-4) (450 pmols) for 3 hrs at 10× excess prior to tryptic digestion. Iodoacetamide was used as the alkylating agent after compound incubation. […] For tryptic digests a 5 ul aliquot (7.5 pmols) was diluted with 15 ul of 0.1% TFA prior to micro C18 Zip Tipping directly onto the MALDI target using alpha cyano-4-hydroxy cinnamic acid as the matrix (5 mg/ml in 0.1% TFA:Acetonitrile 50:50).
As depicted in FIG. 7, the expected peptide ([…]) to be modified was immediately evident at MH+ of 1355.72. This is the mass to be expected when compound I-4, with an adduct mass of 420.21, is added to the peptide mass of 935.51. The peptide was also quite evident in the control sample as modified by Iodacetamide at MH^+ of 992.56. […] There was no evidence of other modified peptides. […]

Where [11] appears, read: Homo sapiens, DOHH-2, DOHH2 B cell lymphoma cell line, read-out: EC50 (μM) DOHH2.

Where two headings read alike, the source gives them in different places.

T1 sequence (P52333 whole entry): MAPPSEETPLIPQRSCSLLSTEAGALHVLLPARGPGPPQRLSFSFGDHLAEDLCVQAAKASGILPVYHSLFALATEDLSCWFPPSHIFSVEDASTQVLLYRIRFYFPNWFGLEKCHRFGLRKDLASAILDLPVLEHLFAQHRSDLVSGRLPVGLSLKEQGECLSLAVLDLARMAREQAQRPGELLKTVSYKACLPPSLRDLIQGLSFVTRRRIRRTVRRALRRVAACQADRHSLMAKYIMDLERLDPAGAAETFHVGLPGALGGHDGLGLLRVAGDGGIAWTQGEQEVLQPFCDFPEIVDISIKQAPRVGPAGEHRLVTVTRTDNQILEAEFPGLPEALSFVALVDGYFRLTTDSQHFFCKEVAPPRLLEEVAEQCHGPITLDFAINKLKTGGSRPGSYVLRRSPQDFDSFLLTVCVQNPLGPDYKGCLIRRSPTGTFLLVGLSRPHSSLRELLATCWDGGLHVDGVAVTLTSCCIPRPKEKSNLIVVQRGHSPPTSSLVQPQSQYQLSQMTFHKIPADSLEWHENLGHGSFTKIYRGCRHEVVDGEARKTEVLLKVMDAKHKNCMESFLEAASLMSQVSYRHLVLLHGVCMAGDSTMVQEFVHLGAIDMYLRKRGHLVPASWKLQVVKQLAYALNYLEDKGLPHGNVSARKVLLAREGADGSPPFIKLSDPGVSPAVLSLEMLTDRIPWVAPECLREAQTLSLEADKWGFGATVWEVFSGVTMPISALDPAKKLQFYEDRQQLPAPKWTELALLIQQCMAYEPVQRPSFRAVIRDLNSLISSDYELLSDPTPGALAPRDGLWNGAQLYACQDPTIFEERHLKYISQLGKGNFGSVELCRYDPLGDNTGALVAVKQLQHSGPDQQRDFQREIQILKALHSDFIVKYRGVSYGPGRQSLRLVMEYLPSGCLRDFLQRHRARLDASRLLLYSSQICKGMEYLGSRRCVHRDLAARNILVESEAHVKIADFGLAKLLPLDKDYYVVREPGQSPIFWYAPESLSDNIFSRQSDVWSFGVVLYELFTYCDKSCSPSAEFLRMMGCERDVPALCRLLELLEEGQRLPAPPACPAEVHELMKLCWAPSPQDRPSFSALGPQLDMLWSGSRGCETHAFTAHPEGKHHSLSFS
Sequence of ITK (Q08881 whole entry): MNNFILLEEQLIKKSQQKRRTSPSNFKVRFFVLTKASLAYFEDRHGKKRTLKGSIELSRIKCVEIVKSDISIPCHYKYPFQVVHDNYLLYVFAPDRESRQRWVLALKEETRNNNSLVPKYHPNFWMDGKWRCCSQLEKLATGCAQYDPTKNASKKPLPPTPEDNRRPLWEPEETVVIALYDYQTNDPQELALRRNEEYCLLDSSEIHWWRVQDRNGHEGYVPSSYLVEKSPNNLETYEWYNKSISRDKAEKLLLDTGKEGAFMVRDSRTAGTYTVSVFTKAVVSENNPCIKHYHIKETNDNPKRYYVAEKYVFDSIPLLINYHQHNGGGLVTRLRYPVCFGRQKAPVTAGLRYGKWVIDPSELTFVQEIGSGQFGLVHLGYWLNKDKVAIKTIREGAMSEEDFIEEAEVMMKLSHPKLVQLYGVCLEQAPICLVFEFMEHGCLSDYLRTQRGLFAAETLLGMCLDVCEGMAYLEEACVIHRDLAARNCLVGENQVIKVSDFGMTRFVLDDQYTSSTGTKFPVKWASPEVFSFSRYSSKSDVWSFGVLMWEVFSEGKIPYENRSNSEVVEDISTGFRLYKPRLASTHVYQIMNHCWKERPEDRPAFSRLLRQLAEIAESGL
T2 sequence (Q06187 whole entry): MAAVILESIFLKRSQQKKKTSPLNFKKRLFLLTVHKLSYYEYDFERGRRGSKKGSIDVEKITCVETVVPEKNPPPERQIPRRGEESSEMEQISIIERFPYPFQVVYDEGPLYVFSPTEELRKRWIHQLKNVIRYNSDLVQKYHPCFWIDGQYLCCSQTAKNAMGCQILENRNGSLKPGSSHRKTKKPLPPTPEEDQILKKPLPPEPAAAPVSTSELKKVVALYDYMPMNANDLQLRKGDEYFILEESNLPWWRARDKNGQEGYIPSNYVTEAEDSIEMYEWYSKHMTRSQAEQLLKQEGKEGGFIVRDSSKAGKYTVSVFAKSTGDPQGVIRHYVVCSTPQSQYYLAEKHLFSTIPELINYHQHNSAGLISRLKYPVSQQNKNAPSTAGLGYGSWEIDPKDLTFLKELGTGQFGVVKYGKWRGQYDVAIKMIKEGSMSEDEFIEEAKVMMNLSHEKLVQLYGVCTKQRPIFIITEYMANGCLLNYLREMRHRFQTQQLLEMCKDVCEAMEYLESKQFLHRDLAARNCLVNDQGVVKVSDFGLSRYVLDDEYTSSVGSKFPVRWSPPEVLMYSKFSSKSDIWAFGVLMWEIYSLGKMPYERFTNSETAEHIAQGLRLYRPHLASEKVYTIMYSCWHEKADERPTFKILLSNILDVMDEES
Sequence of Erbb4 kinase domain (Q15303 718-985): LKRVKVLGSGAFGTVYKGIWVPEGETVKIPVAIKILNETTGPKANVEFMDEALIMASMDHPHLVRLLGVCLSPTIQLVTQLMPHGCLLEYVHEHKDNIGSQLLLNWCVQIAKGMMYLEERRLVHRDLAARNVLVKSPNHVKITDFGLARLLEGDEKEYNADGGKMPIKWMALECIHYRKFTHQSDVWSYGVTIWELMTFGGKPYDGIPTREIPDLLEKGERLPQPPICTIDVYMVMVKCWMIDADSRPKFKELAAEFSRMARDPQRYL
Sequence of TEC kinase (P42680 whole entry): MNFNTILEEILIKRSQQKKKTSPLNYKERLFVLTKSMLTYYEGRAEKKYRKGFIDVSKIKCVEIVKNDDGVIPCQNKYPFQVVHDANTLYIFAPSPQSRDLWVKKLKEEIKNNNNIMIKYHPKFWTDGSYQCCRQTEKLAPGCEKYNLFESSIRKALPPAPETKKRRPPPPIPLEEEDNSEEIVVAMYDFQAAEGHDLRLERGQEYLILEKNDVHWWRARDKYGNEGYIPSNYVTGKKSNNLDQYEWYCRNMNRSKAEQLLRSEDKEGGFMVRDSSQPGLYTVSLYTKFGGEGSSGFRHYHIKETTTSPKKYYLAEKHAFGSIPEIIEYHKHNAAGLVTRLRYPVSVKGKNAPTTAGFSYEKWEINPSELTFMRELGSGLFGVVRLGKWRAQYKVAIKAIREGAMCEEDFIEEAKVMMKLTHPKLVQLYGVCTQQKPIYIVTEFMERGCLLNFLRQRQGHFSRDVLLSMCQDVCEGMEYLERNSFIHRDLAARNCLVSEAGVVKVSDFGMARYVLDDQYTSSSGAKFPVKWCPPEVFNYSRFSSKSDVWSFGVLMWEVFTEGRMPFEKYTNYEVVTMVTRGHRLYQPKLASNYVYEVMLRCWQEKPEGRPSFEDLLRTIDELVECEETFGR

On to `Cc1cnc(Nc2cccc(S(N)(=O)=O)c2)nc1Nc1ccc2c(c1)CCN(C(=O)CCl)C2` [Compound I-11, 3-(4-(2-(2-chloroacetyl)-1,2,3,4-tetrahydroisoquinolin-6-ylamino)-5-methylpyrimidin-2-ylamino)benzenesulfonamide], for which the “covalent modification of ErbB4 by mass spectrometry” value in assay [1] is “covalent modification”. Moreover, the “covalent modification of JAK3 peptide LVMEYLPSGCLR (Cys909) by mass spectrometry” value in assay [2] is “measurable modification”. Further, the IC50 in [3] is less than 0.01 µM.

“4-(3-acrylamidophenoxy)-2-(3-methoxyphenylamino)-pyrimidine-5-carboxylic acid phenylamide [Compound I-200]”: the IC50 in [4] is less than 0.01 µM; in assay [5], greater than 10 µM; in assay [6] it was less than 0.01 µM.

In the case of `C=CC(=O)N1CCC[C@@H](Oc2nc(Nc3ccc(OC)nc3)ncc2F)C1` [Compound I-180, (R)-1-(3-(5-fluoro-2-(6-methoxypyridin-3-ylamino)pyrimidin-4-yloxy)piperidin-1-yl)prop-2-en-1-one], the IC50 is less than 0.01 µM in [4], 0.1 to 1 µM in [7], 0.1 to 1 µM in assay [5] and 0.1 to 1 µM in assay [6].

With `C=CC(=O)Nc1cccc(Oc2nc(Nc3cccc(OC)c3)ncc2C(N)=O)c1` [Compound I-178, 4-(3-acrylamidophenoxy)-2-(3-methoxyphenylamino)pyrimidine-5-carboxylic Acid Amide], the IC50 was less than 0.01 µM in assay [4], 0.01 to 0.1 µM in assay [7], 0.01 to 0.1 µM in assay [5] and less than 0.01 µM in assay [6]. Further, the 50% effective concentration (EC50) in assay [8] (DHL4 B cell lymphoma cell line, read-out: EC50 (μM) DHL4) is greater than 10 µM; in assay [8] (setting [11]), 1 to 10 µM; in assay [8] (Homo sapiens, WSUDLCL2, WSU-DLCL2 B cell lymphoma cell line, read-out: EC50 (μM) WSU-DLCL2) it was greater than 10 µM.

On to `C=CC(=O)Nc1cccc(Oc2nc(Nc3cccc(OC)c3)ncc2C(=O)NC2CC2)c1` [Compound I-177, 4-(3-acrylamidophenoxy)-2-(3-methoxyphenylamino)-pyrimidine-5-carboxylic Acid Cyclopropylamide], for which the IC50 is less than 0.01 µM in [4], 0.1 to 1 µM in assay [7], 0.01 to 0.1 µM in assay [5] and less than 0.01 µM in assay [6].

`C=CC(=O)Nc1cccc(Nc2ncc(C)c(Nc3cccc(C)c3)n2)c1` [Compound I-2, N-(3-(5-methyl-4-(m-tolylamino)pyrimidin-2-ylamino)phenyl)acrylamide]: the “BTK Inhibition Type” value in [9] was “irreversible”. Besides, the EC50 in assay [8] (setting [11]) lay in the range of 0.1 to 1 µM. The “covalent modification of TEC kinase peptide GCLLNFLR (Cys449) by mass spectrometry” value in assay [10] is “reaction was complete”. Also, in [3], the IC50 is less than 0.01 µM.
